Test results: patent US6770279B1, “TNFα antagonists and cyclosporin in therapy of rheumatoid arthritis” (The Kennedy Institute of Rheumatology, priority 1992, dated 2004)

Tests used:
[1] = test system: TNF expression in the joints; assay: Immunohistochemical studies of TNF expression in joints; format: in vivo, mouse; conditions: preliminary immunohistochemical studies; mice with collagen-induced arthritis
Excerpt: These findings indicate that rolipram is effective in established collagen-induced arthritis and may therefore be useful in the treatment of RA.

[2] = test system: collagen type II induced arthritis in the DBA/1 mouse; assay: Collagen type II induced arthritis: clinical score; format: in vivo; conditions: Example 7B
Experimental: (§1) Male DBA/1 mice were immunized intradermally with 100 μg of bovine type II collagen emulsified in complete Freund's adjuvant (Difco Laboratories, East Molsey, UK). The mean day of onset of arthritis was approximately one month after immunization. […] Arthritis was monitored for paw-swelling (measured with calipers) for 10 days, after which the mice were sacrificed and joints were processed for histology.
Clinical Score was assessed on the following scale: 0=normal; 1=slight swelling and/or erythema; 2=pronounced edematous swelling; and 3=joint rigidity. […]
as §1, with “UK).” for “UK). The mean day of onset of arthritis was approximately one month after immunization.”, “paw swelling” for “paw-swelling”
Clinical score was assessed on the following scale: 0=normal; 1=slight swelling and/or erythema; 2=pronounced edematous swelling, and 3=joint rigidity. […]
as §1, with “UK).” for “UK). The mean day of onset of arthritis was approximately one month after immunization.”, “paw swelling” for “paw-swelling”, “histology. […]” for “histology.”

[3] = test system: collagen type II induced arthritis in the DBA/1 mouse; assay: Collagen type II induced arthritis: limb involvement (number of arthritic limbs); format: in vivo; conditions: Example 2B; anti-TNF mAb 300 μg; methylprednisolone acetate 2 mg/kg
Experimental: Male DBA/1 mice were immunized intradermally at 8-12 weeks of age with 100 μg type II collagen emulsified in Freund's complete adjuvant (Difco Laboratories, East Molsey, UK). Day one of arthritis was considered to be the day that erythema and/or swelling was first observed in one or more limbs. Arthritis became clinically evident around 30 days after immunization with type II collagen. For each mouse, treatment was started on the first day that arthritis was observed and continued over a 10 day period, after which the mice were sacrificed and joints were processed for histology. Monoclonal antibody (mAb) treatment was administered on days 1, 4, and 7. For anti-TNF antibody, TN3-19.12, a neutralizing hamster IgG1 anti-TNFα/β monoclonal antibody (mAb), was used (Sheehan, K. C. et al., J. Immunology 142:3884-3893 (1989)). The isotype control was L2. The anti-TNF antibody and the isotype control were provided by R. Schreiber, Washington University Medical School (St. Louis, Mo., USA), in conjunction with Celltech (Slough, UK). The cell-depleting anti-CD4 monoclonal antibody (rat IgG2b) consisted of a 1:1 mixture of YTS 191.1.2 and YTA 3.1.2, provided by H. Waldmann (University of Cambridge, UK) (Galfre, G. et al., Nature 277: 131-133 (1979); Cobbold, S. P. et al., Nature 312: 548-551 (1984); Qin, S. et al., European J. Immunology 17:1159-1165 (1987)).
In collagen-induced arthritis, as in RA, it is usual for additional limbs to become involved after the initial appearance of clinical disease and new limb involvement is an important indicator of the progression of the disease. […]
Male DBA/1 mice were immunized intradermally with 100 μg of bovine type II collagen emulsified in complete Freund's adjuvant (Difco Laboratories, East Molsey, UK). […] Arthritis was monitored for clinical score and paw swelling (measured with calipers) for 10 days, after which the mice were sacrificed and joints were processed for histology. […]

Row | SMILES | TNF expression in the joints [1] | mean clinical score on day 10 (±SE) ([2]; rolipram 3 mg/kg twice daily, anti-TNF mAb 300 μg days 1, 4, 7, maximum score 12) | severity of arthritis (clinical score) ([2]; rolipram 3, 5 or 10 mg/kg i.p. twice daily, vs Cremophor EL) | Increase (%) in limbs affected [3] [%] | Limbs Affected (mean ± SEM) Day 1 [3] | Limbs Affected (mean ± SEM) Day 10 [3]
1 | COc1ccc(C2CNC(=O)C2)cc1OC1CCCC1 (stereo not drawn) [rolipram] | down-regulation of TNF expression in the joints | 1.0±0.3 | significant reduction in the severity of arthritis |  |  | 
2 | CC(=O)OCC(=O)[C@@]1(O)CC[C@H]2[C@@H]3C[C@H](C)C4=CC(=O)C=C[C@]4(C)[C@H]3[C@@H](O)C[C@@]21C [Methylprednisolone acetate, methylprednisolone acetate] |  |  |  | 33 | 1.00 ± 0.00 | 1.50 ± 0.22
